Measurements: PubChem BioAssay (NCI)
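Growth conditions: 96-well plates. Treatment: test compound, 48 hours, 5 concentrations. Analysis: linear interpolation between bracketing concentrations; unreached endpoints set to highest concentration. GI50 marks 50% less growth. Definition used: TGI = concentration required for complete inhibition of growth.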

Experiments:
Assay in all cases: NCI-60 cell line screen, 48 h
MOLT-4 leukemia = test system: MOLT-4 leukemia
OVCAR-3 ovarian = test system: OVCAR-3 ovarian
OVCAR-5 ovarian = test system: OVCAR-5 ovarian
SK-MEL-2 melanoma = test system: SK-MEL-2 melanoma
SK-MEL-28 melanoma = test system: SK-MEL-28 melanoma
TK-10 renal = test system: TK-10 renal
UACC-257 melanoma = test system: UACC-257 melanoma
BT-549 breast = test system: BT-549 breast
DU-145 prostate = test system: DU-145 prostate
MCF7 breast = test system: MCF7 breast

Structure (SMILES)	TGI (MOLT-4 leukemia)	TGI (OVCAR-3 ovarian)	TGI (OVCAR-5 ovarian)	TGI (SK-MEL-2 melanoma)	TGI (SK-MEL-28 melanoma)	TGI (TK-10 renal)	TGI (UACC-257 melanoma)	GI50 (BT-549 breast)	TGI (BT-549 breast)	GI50 (DU-145 prostate)	TGI (DU-145 prostate)	GI50 (MCF7 breast)	TGI (MCF7 breast)	GI50 (MOLT-4 leukemia)	GI50 (OVCAR-3 ovarian)	GI50 (OVCAR-5 ovarian)	GI50 (SK-MEL-2 melanoma)	GI50 (SK-MEL-28 melanoma)	GI50 (TK-10 renal)	GI50 (UACC-257 melanoma)
[N-]=[N+]=NC12CC3C4CC5CC3C(C1)C(C5)C4C2	> 100 µM	> 100 µM	> 100 µM	> 100 µM	> 100 µM	> 100 µM	> 100 µM	–	–	–	–	–	–	–	–	–	–	–	–	–
O=[N+]([O-])c1ccc(C2=Nn3cnnc3SC2)o1	43.2 µM	31.7 µM	36.8 µM	50.7 µM	31.1 µM	> 100 µM	29.6 µM	–	–	–	–	–	–	–	–	–	–	–	–	–
CC(C)=CCNc1ncnc2c1ncn2C1OC(CO)C(O)C1O (centres undefined)	3.82 µM	1.1 µM	> 1000 µM	334 µM	> 1000 µM	85.6 µM	> 1000 µM	0.57 µM	2.8 µM	0.277 µM	0.943 µM	0.624 µM	12.3 µM	0.457 µM	0.373 µM	13.3 µM	16.2 µM	> 346 µM	1.04 µM	> 792 µM
COC1(OC)CC2C(=O)N(Cc3ccccc3)C1C(S(=O)(=O)c1ccccc1)C2S(=O)(=O)c1ccccc1 (centres undefined)	46.6 µM	22.9 µM	34.1 µM	–	26.8 µM	28.5 µM	21.1 µM	–	–	–	–	–	–	–	–	–	–	–	–	–
COc1cc(N(CCC#N)CCC#N)ccc1/C(N=Nc1ccc([N+](=O)[O-])cc1)=N/NC(=O)c1cc(Br)ccc1O	128 µg/mL	76.2 µg/mL	> 150 µg/mL	> 150 µg/mL	> 150 µg/mL	–	> 150 µg/mL	53 µg/mL	> 150 µg/mL	30.3 µg/mL	70.9 µg/mL	42.3 µg/mL	> 150 µg/mL	42.6 µg/mL	30.9 µg/mL	50 µg/mL	44.2 µg/mL	80.6 µg/mL	–	52.3 µg/mL
Cn1c2ccccc2c2c3c(c4c5cc(Br)ccc5n(C)c4c21)C(=O)N(O)C3=O	0.275 µM	–	–	> 100 µM	> 100 µM	> 100 µM	> 100 µM	–	–	–	–	0.0579 µM	> 100 µM	0.0474 µM	–	–	> 48.2 µM	0.584 µM	27.7 µM	0.264 µM
Cc1nn(-c2ccccc2)c2nc(N3CCOCC3)nnc12	> 100 µM	> 100 µM	> 100 µM	> 100 µM	> 100 µM	> 100 µM	> 100 µM	–	–	–	–	–	–	–	–	–	–	–	–	–
CCCCC(C(=O)C(=O)NC1C2CC3CC(C2)CC1C3)C(=O)C(C)C (centres undefined)	> 100 µM	> 100 µM	> 100 µM	> 100 µM	> 100 µM	> 100 µM	> 100 µM	–	–	–	–	–	–	–	–	–	–	–	–	–
O=C(O)CCC(=O)c1ccc[nH]1	> 100 µM	> 100 µM	> 100 µM	> 100 µM	–	> 100 µM	> 100 µM	–	> 100 µM	–	> 100 µM	–	> 100 µM	–	–	–	–	–	–	–
COc1ccc2c3c([nH]c2c1[N+](=O)[O-])C(C)=NCC3	> 100 µM	> 100 µM	> 100 µM	> 100 µM	> 100 µM	> 100 µM	> 100 µM	–	–	–	–	–	–	–	–	–	–	–	–	–
CNC(=O)N(C)N=NCCCl	> 100 µM	> 100 µM	> 100 µM	> 100 µM	> 100 µM	> 100 µM	> 100 µM	–	–	–	> 100 µM	–	> 100 µM	–	–	–	–	–	–	–
